US20220170052A1, “USE OF BACTERIOCIN-PRODUCING ETHANOLOGENS IN BIOFUEL PRODUCTION” (Wisconsin Alumni Research Foundation, priority 2016, published 2022)
Where no end group is shown, it is not given here.

What was measured:
[1] = system: wild lactic acid bacteria isolated from ethanol plants; assay: Sensitivity of 15 wild lactic acid bacteria isolated from ethanol plants to inhibitors in corn steep liquor broth (CSL); assay type: cell-based; details: share of 15 wild LAB isolates, 33° C.
Excerpt: Pediocin and brochocin are known to inhibit a particular range of LAB, and serve as exemplary model bacteriocins. Other bacteriocins with equal or even broader inhibition ranges may be, based on the present disclosure, synthesized and secreted in a similar manner. Table 8 compares the effectiveness of three different LAB bacteriocins against the three antibiotics most commonly utilized in the ethanol industry as well as another industry antimicrobial ingredient, hop acids. […] Fifteen strains representative of the organisms isolated from corn ethanol plants were utilized. […] The bacteriocins were utilized at either levels currently being produced (pediocin), at levels reported by others in the research literature (nisin) using commercially available preparations, or in an assay system that allows for analyzing relatively broad range of concentrations (brochocin inhibition assay by agar diffusion).

[2] = system: ethanol plant isolates (LAB); assay: Growth (O.D.600) of ethanol plant isolates in corn mash extract with added pediocin; assay type: cell-based, lactic acid bacteria; details: Pediocin (Sigma) 500 ng/ml in corn mash extract, 37° C.
Excerpt: Screening LAB isolated from ethanol plants for susceptibility to pediocin or brochocin. A variety of microorganisms are known to contaminate bioethanol fermentations, however LAB, particularly lactobacilli, are of primary concern (Beckner et al., 2011). The inventors' laboratory has isolated sixty-two LAB from four ethanol plants in the Midwest region of the United States. This ethanol plant culture collection contains isolates of Lb. fermentum, Lb. plantarum, Lb. brevis, Lb. mucosae, Lb. helveticus, Lb. heilongjiangensis, Lb. amylovorous, Lb. casei, Enterococcus sp. and Pediococcus pentosaceus strains that were gathered from all stages of the ethanol fermentation process. Thirty of these cultures were propagated from frozen by sequential transfers through MRS broth and corn mash extract, a filtrate obtained from corn mash from a bioethanol plant. Pediocin (Sigma) was added at 500 ng/ml to corn mash extract, inoculated with one of the ethanol plant isolates, incubated at 37° C. and growth was monitored by following O.D.600.

`CC[C@H]1OC(=O)[C@H](C)[C@@H](O[C@H]2C[C@@](C)(OC)[C@@H](O)[C@H](C)O2)[C@H](C)[C@@H](O[C@@H]2O[C@H](C)C[C@H](N(C)C)[C@H]2O)[C@](C)(O)C[C@@H](C)C(=O)[C@H](C)[C@@H](O)[C@]1(C)O` [Erythromycin] showed a Resistant ([1]; Erythromycin 1 μg/mL) of 7% and a Sensitive ([1]; Erythromycin 1 μg/mL) of 93%.

Work on Penicillin yielded a Resistant ([1]; Penicillin 6 μg/mL) of 33% and a Sensitive ([1]; Penicillin 6 μg/mL) of 77%.

Virginiamycin gave a Resistant ([1]; Virginiamycin 3 μg/mL) of 13% and a Sensitive ([1]; Virginiamycin 3 μg/mL) of 87%.

With nisin the Resistant ([1]; Nisin 500 ng/mL) was 13% and the Sensitive ([1]; Nisin 500 ng/mL) was 87%.

For “pediocin (KYYGNGVTCGKHSCSVDWGKATTCIINNGAMAWATGGHQGNHKC; ends and bridges not checked; cysteine pairing not given here; UniProt P29430 19-62, looked up) [Class IIa bacteriocin; commercial preparation (Sigma), used at the concentration produced by Lb. casei E3 (pNZPed+)]”, the Resistant ([1]; Pediocin 500 IU/mL) was 67%, the Sensitive ([1]; Pediocin 500 IU/mL) was 33% and the “ethanol plant isolates whose growth was inhibited” value [2] was “five of the thirty”.
